One may read the pIC50 as the negative decadic logarithm of the IC50, by convention in mol/L. One may read the IC50 as the midpoint of a concentration-inhibition curve. Low readings indicate greater potency, high ones weaker potency.

One experiment addresses KRas G12V (Homo sapiens, UniProt P01116, G12V). The experiment is described as follows: biochemical.
Experiment [1] concerns phospho-ERK in NCI-H727 (G12V) cells. The experiment is described as follows: Inhibition of KRas-mediated phosphorylation of ERK (in-cell western). The note with it: Homo sapiens, NCI-H727, 3 h, 3 hours compound, phospho-ERK normalized to GAPDH. Format: cell-based. The method, boiled down:
(§1)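 Cells treated 3 h with compounds (0.5% DMSO), fixed in formaldehyde and methanol-permeabilized. In-cell western for phospho-ERK (Thr202/Tyr204) normalized to GAPDH, as % of DMSO control; IC50 by 4-parameter fit.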

In experiment [2] the test system is phospho-ERK in AsPC-1 (G12D) cells. Described as above. Format: cell-based. Conditions: Homo sapiens, ASPC1, 3 h, 3 hours compound, phospho-ERK normalized to GAPDH. The method, boiled down:
as §1

The subject of experiment [3] is phospho-ERK in MKN1 (WTdep) cells. Described as above. Format: cell-based. Conditions: Homo sapiens, MKN-1, 3 hours compound, phospho-ERK normalized to GAPDH. The gist of the method: as §1
Experiment [4] has as its system phospho-ERK in NCI-H358 (G12C) cells. The description is as above. Type of experiment: cell-based. The note with it: Homo sapiens, 3 hours compound, phospho-ERK normalized to GAPDH. The method, boiled down:
as §1

In experiment [5] the test system is phospho-ERK in NCI-H460 (Q61H) cells. Described as above. Format: cell-based. The note with it: Homo sapiens, NCI-H460, 3 h, 3 hours compound, phospho-ERK normalized to GAPDH. The gist of the method: as §1
The test system of experiment [6] is phospho-ERK in A549 (G12S) cells. Described as above. Format: cell-based. Conditions: Homo sapiens, 3 hours compound, phospho-ERK normalized to GAPDH. The method, boiled down:
as §1

Experiment [7] concerns phospho-ERK in PSN-1 (G12R) cells. The experiment is described as above. Conditions: Homo sapiens, PSN1, 3 hours compound, phospho-ERK normalized to GAPDH. Type of experiment: cell-based. The gist of the method:
as §1

The test system of experiment [8] is phospho-ERK in HCT116 (G13D) cells. The experiment is described as above. Format: cell-based. The note with it: Homo sapiens, HCT-116, 3 hours compound, phospho-ERK normalized to GAPDH. The gist of the method: as §1
Another experiment has as its target KRas G12D (Homo sapiens, UniProt P01116, G12D). The experiment is described as follows: biochemical.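 Also: TR-FRET displacement binding assay on KRas, read after a one-hour incubation at room temperature, IC50 fitted from percent-of-control values.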
A further experiment deals with KRas G12R (Homo sapiens, UniProt P01116, G12R). Description: biochemical.
Chain of KRas G12R (P01116 1-169 isoform P01116-2 G12R): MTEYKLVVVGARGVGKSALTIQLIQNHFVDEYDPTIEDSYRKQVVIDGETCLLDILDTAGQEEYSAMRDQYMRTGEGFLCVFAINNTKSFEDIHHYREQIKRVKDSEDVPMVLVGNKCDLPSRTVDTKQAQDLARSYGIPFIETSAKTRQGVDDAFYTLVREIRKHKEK

pIC50: −log10 of the molar value.

Chain of KRas G12D (P01116 1-169 isoform P01116-2 G12D): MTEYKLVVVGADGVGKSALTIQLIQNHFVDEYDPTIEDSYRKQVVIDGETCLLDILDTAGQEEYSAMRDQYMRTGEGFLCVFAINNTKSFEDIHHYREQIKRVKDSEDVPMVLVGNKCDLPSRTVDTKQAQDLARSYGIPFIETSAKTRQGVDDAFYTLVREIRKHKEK
Chain of KRas G12V (P01116 1-169 isoform P01116-2 G12V): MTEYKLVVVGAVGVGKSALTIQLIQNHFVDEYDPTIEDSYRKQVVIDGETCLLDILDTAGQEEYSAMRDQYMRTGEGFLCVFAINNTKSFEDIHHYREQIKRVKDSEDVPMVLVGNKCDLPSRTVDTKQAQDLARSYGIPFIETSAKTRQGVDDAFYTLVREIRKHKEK

Take `CCc1c(F)ccc2cc(O)cc(-c3ncc4c(NCc5ccc6[nH]cnc6c5)nc(OC[C@@]56CCCN5C[C@H](F)C6)nc4c3F)c12` [Example 139, 4-(4-(((1H-benzo[d]imidazol-5-yl)methyl)amino)-8-fluoro-2-(((2R,7aS)-2-fluorohexahydro-1H-pyrrolizin-7a-yl)methoxy)pyrido[4,3-d]pyrimidin-7-yl)-5-ethyl-6-fluoronaphthalen-2-ol]: the results for the pIC50 at KRas G12V, against KRas G12D and against KRas G12R were ≥ 8.70, 8.10 and ≥ 8.70, respectively. Moreover, the half-maximal inhibitory concentration (IC50) in experiment [1] is ≥ 10000 nM; in experiment [2], ≥ 10000 nM; in [3] it was 307 nM; in experiment [4], 115 nM; in experiment [5] it was 7510 nM; in experiment [6], ≥ 10000 nM. The IC50 in [7] and in [8] was ≥ 10000 nM throughout.

For the compound `CCc1c(F)ccc2cc(O)cc(-c3ncc4c(NCc5ncc6cc[nH]c6n5)nc(OC[C@@]56CCCN5C[C@H](F)C6)nc4c3F)c12` [Example 142, 4-(4-(((7H-pyrrolo[2,3-d]pyrimidin-2-yl)methyl)amino)-8-fluoro-2-(((2R,7aS)-2-fluorohexahydro-1H-pyrrolizin-7a-yl)methoxy)pyrido[4,3-d]pyrimidin-7-yl)-5-ethyl-6-fluoronaphthalen-2-ol], the pIC50 is ≥ 8.70 against KRas G12V, 7.85 against KRas G12D and ≥ 8.70 against KRas G12R. Also, the IC50 is ≥ 10000 nM in [1]; 2870 nM in experiment [2]; 45 nM in experiment [3]; 78 nM in [4]; 212 nM in experiment [5]; ≥ 10000 nM in experiment [6]. In addition, the IC50 in experiment [7] is ≥ 10000 nM; in experiment [8], 6960 nM.

For `CCc1c(F)ccc2cc(O)cc(-c3ncc4c(NCc5ccc(=O)[nH]c5)nc(OC[C@@]56CCCN5C[C@H](F)C6)nc4c3F)c12` [Example 143], the pIC50 on KRas G12V is ≥ 8.70; against KRas G12D it was 8.40; against KRas G12R, ≥ 8.70. Besides, the IC50 in experiment [1] is ≥ 10000 nM; in [2], ≥ 10000 nM; in [3], 300 nM; in [4], 527 nM; in [5], ≥ 10000 nM; in [6], ≥ 10000 nM. Besides, the IC50 in [7] and in experiment [8] was ≥ 10000 nM each time.

On to `CCc1c(F)ccc2cc(O)cc(-c3ncc4c(N5CCCC(c6ncn[nH]6)C5)nc(OC[C@@]56CCCN5C[C@H](F)C6)nc4c3F)c12` (stereo partly drawn) [Example 145, 4-(4-(3-(1H-1,2,4-triazol-5-yl)piperidin-1-yl)-8-fluoro-2-(((2R,7aS)-2-fluorohexahydro-1H-pyrrolizin-7a-yl)methoxy)pyrido[4,3-d]pyrimidin-7-yl)-5-ethyl-6-fluoronaphthalen-2-ol], for which the pIC50 at KRas G12V was 8.22; on KRas G12D, 8.05; against KRas G12R, 8.52. Besides, the concentration for half-maximal inhibition (IC50) in experiment [1] is ≥ 10000 nM; in experiment [2], ≥ 10000 nM; in [3] it was 258 nM; in experiment [4], 379 nM; in experiment [5], 847 nM; in experiment [6], ≥ 10000 nM. The IC50 in [7] and in [8] was ≥ 10000 nM each time.

Take `CCc1c(F)ccc2cc(O)cc(-c3ncc4c(N5CCCC(C(N)=O)C5)nc(OC[C@@]56CCCN5C[C@H](F)C6)nc4c3F)c12` (stereo partly shown) [Example 147]: the pIC50 was 8.52 against KRas G12V, 8.40 at KRas G12D and 8.52 against KRas G12R. For the same compound, the IC50 is ≥ 10000 nM in [1]; ≥ 10000 nM in experiment [2]; 65 nM in experiment [3]; 79 nM in experiment [4]; 383 nM in [5]; 1950 nM in experiment [6]. In addition, the IC50 in experiment [7] and in experiment [8] was ≥ 10000 nM throughout.

Consider `CCc1c(F)ccc2cc(O)cc(-c3ncc4c(Nc5ccon5)nc(OC[C@@]56CCCN5C[C@H](F)C6)nc4c3F)c12` [Example 152, 5-ethyl-6-fluoro-4-(8-fluoro-2-(((2R,7aS)-2-fluorohexahydro-1H-pyrrolizin-7a-yl)methoxy)-4-(isoxazol-3-ylamino)pyrido[4,3-d]pyrimidin-7-yl)naphthalen-2-ol], for which the pIC50 on KRas G12V is 8.10; against KRas G12D, 6.76; against KRas G12R, 8.00. Also, the IC50 in experiment [1] was ≥ 10000 nM; in experiment [2] it was ≥ 10000 nM; in [3], 6290 nM; in experiment [4] it was ≥ 10000 nM; in experiment [5] it was ≥ 10000 nM; in [6] it was ≥ 10000 nM. Besides, the IC50 in [7] and in [8] was ≥ 10000 nM in each case.

With `CCc1c(F)ccc2cc(O)cc(-c3ncc4c(N5CCN(c6ncccc6C#N)CC5)nc(OC[C@@]56CCCN5C[C@H](F)C6)nc4c3F)c12` [Example 155], the negative-log IC50 (pIC50) against KRas G12V is 8.40; against KRas G12D it was 6.93; against KRas G12R, 8.52. Moreover, the IC50 in [1] was 2670 nM; in experiment [2], 1720 nM; in [3], 196 nM; in [4], 329 nM; in experiment [5] it was 399 nM; in [6] it was ≥ 10000 nM. Moreover, the IC50 in [7] and in experiment [8] was ≥ 10000 nM in each case.

Regarding `CCc1c(F)ccc2cc(O)cc(-c3ncc4c(NCCc5c[nH]c6ncccc56)nc(OC[C@@]56CCCN5C[C@H](F)C6)nc4c3F)c12` [Example 157, 4-(4-((2-(1H-pyrrolo[2,3-b]pyridin-3-yl)ethyl)amino)-8-fluoro-2-(((2R,7aS)-2-fluorohexahydro-1H-pyrrolizin-7a-yl)methoxy)pyrido[4,3-d]pyrimidin-7-yl)-5-ethyl-6-fluoronaphthalen-2-ol], the pIC50 against KRas G12V is ≥ 8.70; on KRas G12D, 7.92; at KRas G12R it was ≥ 8.70. The IC50 turned out to be 4720 nM in [1]; 751 nM in experiment [2]; 31 nM in [3]; 31 nM in experiment [4]; 585 nM in experiment [5]; 448 nM in experiment [6]. The IC50 is ≥ 10000 nM in [7] and 893 nM in experiment [8].

Consider `CCc1c(F)ccc2cc(O)cc(-c3ncc4c(NCc5cc[nH]n5)nc(OC[C@@]56CCCN5C[C@H](F)C6)nc4c3F)c12` [Example 159, 4-(4-(((1H-pyrazol-3-yl)methyl)amino)-8-fluoro-2-(((2R,7aS)-2-fluorohexahydro-1H-pyrrolizin-7a-yl)methoxy)pyrido[4,3-d]pyrimidin-7-yl)-5-ethyl-6-fluoronaphthalen-2-ol], for which the values for the pIC50 on KRas G12V, at KRas G12D and against KRas G12R were 8.52, 7.41 and 8.30, respectively. For the same compound, the IC50 in [1] was 2000 nM; in experiment [2], ≥ 10000 nM; in experiment [3] it was 133 nM; in experiment [4], 139 nM; in experiment [5], 1510 nM; in [6], 4070 nM. The values for the half-maximal inhibitory concentration (IC50) in experiment [7] and in experiment [8] were ≥ 10000 nM and 2110 nM, respectively.

Consider `CCc1c(F)ccc2cc(O)cc(-c3ncc4c(NCc5cn[nH]c5)nc(OC[C@@]56CCCN5C[C@H](F)C6)nc4c3F)c12` [Example 160, 4-(4-(((1H-pyrazol-4-yl)methyl)amino)-8-fluoro-2-(((2R,7aS)-2-fluorohexahydro-1H-pyrrolizin-7a-yl)methoxy)pyrido[4,3-d]pyrimidin-7-yl)-5-ethyl-6-fluoronaphthalen-2-ol], for which the pIC50 at KRas G12V is ≥ 8.70; against KRas G12D, 7.82; at KRas G12R, ≥ 8.70. Besides, the IC50 in experiment [1] came to 727 nM; in experiment [2], 5520 nM; in experiment [3] it was 146 nM; in experiment [4], 149 nM; in experiment [5], 471 nM; in experiment [6] it was 974 nM. The IC50 in experiment [7] was ≥ 10000 nM; in experiment [8], 1600 nM.

For `CCc1c(F)ccc2cc(O)cc(-c3ncc4c(NCc5c[nH]cn5)nc(OC[C@@]56CCCN5C[C@H](F)C6)nc4c3F)c12` [Example 164, 4-(4-(((1H-imidazol-4-yl)methyl)amino)-8-fluoro-2-(((2R,7aS)-2-fluorohexahydro-1H-pyrrolizin-7a-yl)methoxy)pyrido[4,3-d]pyrimidin-7-yl)-5-ethyl-6-fluoronaphthalen-2-ol], the results for the pIC50 against KRas G12V, against KRas G12D and at KRas G12R were 8.52, 7.55 and 8.52, respectively. Further, the IC50 in [1] was ≥ 10000 nM; in [2], ≥ 10000 nM; in experiment [3], 207 nM; in experiment [4], 602 nM; in experiment [5] it was 6820 nM; in [6] it was ≥ 10000 nM. The IC50 in experiment [7] and in experiment [8] was ≥ 10000 nM in each case.

(Values after patent US12398154B2, “Azaquinazoline pan-KRas inhibitors” (Mirati Therapeutics, Inc., priority 2020, dated 2025).)
